Laboratory results from US4994476A, “Dihydropyridin-3,5-dicarboxylates incorporating aryloxypropanolamine moieties” (Bristol-Myers Company, priority 1985, dated 1991).
Counter-ions that a name gives are not always drawn. Like-named read-outs stand apart in the source and are kept apart here.

Key:
β-Receptor = biological target: T1, β-Receptor (Rattus norvegicus, UniProt P18090); experiment: β-Receptor binding in animal heart tissue
T1 construct: from tissue; host or cells: rat heart
Experimental: (§1) Evaluation of these pharmacological properties was affected by means of both in vitro and in vivo biological screens. In vitro screening included calcium activity in various smooth muscle systems such as rat dorsal aorta, portal vein, and trachea; effects on blood platelets, β-binding affinities which were determined in rat heart and lung. […] The in vivo testing included vasodilating results in the ganglion-blocked, angiotensin-II supported rat and antihypertensive screening in the spontaneous hypertensive rat (SHR) or DOCA salt rats.

[1] = test system: mean arterial blood pressure, ganglion-blocked, angiotensin-II supported rat; experiment: Vasodilation in the angiotensin-supported ganglion-blocked rat; format: in vivo
Experimental: as §1

rat dorsal aorta = biological target: T2, rat dorsal aorta (Rattus norvegicus, UniProt P22002); experiment: Calcium blockade in rat dorsal aorta (calcium activity in smooth muscle); format: cell-based; settings: for Calcium (pA2): negative logarithm of molar concentration giving dose ratio of 2; for Kb: negative logarithm of molar concentration giving dose ratio of 2, read-out: Calcium (pA2) (converted)
T2 construct: from tissue; host or cells: rat dorsal aorta (smooth muscle)
T2 sequence (P22002 whole entry): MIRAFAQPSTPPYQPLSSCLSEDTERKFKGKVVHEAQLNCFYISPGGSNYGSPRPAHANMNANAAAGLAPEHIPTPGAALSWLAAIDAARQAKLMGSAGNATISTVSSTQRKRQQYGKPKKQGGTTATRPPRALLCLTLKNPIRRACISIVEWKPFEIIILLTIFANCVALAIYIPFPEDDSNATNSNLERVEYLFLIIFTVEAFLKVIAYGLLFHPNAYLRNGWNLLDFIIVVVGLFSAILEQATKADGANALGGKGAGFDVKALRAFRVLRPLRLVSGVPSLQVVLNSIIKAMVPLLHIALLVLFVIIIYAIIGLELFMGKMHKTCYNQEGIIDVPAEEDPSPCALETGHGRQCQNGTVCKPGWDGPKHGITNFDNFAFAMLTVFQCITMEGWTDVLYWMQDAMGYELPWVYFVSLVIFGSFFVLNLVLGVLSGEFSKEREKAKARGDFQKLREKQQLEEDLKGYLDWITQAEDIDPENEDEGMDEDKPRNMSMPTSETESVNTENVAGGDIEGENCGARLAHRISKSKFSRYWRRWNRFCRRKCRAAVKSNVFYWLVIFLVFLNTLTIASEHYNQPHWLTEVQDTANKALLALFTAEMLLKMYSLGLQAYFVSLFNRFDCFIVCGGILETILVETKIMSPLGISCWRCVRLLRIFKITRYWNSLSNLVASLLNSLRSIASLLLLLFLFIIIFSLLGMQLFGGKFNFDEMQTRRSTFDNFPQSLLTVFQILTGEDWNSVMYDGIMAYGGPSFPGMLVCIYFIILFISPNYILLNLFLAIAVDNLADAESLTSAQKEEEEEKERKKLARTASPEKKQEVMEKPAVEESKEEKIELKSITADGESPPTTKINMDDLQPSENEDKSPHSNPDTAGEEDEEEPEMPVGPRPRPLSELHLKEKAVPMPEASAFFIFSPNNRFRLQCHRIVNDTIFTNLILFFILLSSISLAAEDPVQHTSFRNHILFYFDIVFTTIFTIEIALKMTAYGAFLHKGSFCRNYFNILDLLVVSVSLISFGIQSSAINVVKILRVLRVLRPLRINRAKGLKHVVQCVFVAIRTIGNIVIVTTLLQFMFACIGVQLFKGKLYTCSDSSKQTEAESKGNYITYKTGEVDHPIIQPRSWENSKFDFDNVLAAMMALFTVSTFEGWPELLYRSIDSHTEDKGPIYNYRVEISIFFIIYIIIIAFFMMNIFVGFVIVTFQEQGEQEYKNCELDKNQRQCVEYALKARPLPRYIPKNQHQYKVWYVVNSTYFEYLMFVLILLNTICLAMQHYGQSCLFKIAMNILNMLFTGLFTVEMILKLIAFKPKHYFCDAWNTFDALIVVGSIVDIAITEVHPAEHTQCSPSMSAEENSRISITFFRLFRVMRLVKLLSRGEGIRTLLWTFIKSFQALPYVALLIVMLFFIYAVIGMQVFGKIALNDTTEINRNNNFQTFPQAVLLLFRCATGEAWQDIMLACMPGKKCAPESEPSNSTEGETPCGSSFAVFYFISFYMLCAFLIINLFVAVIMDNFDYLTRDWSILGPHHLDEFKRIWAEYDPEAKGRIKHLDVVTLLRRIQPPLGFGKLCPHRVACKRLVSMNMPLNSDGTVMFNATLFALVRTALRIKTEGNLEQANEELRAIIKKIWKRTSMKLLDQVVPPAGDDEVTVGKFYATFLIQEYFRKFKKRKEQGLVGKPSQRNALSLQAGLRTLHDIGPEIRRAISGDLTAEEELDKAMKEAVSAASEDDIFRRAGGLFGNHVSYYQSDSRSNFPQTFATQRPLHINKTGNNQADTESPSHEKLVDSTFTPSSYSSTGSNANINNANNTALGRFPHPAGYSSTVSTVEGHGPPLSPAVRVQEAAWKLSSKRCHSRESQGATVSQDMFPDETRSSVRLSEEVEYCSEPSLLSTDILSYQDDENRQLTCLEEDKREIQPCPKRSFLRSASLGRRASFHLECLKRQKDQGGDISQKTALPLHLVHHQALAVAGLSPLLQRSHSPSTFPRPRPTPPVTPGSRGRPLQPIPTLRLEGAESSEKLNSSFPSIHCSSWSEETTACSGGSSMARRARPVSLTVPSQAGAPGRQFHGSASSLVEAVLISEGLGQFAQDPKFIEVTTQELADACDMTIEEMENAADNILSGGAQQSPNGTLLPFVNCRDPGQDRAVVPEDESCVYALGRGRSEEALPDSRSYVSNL
T2 sequence (P54290 25-944 partner limits assumed): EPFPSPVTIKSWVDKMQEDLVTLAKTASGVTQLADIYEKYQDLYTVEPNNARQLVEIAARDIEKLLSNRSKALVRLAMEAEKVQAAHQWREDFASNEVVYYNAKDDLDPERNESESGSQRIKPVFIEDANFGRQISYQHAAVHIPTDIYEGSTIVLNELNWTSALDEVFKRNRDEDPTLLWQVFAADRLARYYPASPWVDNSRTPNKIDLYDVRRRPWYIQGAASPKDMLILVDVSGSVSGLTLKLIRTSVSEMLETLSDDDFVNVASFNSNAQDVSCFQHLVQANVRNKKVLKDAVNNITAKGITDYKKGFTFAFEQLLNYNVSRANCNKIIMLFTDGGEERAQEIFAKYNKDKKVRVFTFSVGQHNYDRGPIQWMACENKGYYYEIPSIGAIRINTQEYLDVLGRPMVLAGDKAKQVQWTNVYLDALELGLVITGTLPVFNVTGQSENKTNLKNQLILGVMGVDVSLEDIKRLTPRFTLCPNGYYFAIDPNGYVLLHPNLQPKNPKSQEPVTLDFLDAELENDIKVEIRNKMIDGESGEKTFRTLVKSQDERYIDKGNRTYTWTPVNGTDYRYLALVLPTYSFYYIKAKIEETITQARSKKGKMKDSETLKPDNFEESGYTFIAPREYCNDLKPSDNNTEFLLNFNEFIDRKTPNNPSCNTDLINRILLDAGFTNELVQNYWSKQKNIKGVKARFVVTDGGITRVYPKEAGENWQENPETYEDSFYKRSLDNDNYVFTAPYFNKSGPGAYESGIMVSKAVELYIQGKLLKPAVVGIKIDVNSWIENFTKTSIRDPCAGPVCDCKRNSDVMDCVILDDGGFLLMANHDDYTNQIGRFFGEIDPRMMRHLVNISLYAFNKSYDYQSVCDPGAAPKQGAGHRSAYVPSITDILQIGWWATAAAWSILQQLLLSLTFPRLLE
T2 sequence (P54290 945-1091 partner limits assumed): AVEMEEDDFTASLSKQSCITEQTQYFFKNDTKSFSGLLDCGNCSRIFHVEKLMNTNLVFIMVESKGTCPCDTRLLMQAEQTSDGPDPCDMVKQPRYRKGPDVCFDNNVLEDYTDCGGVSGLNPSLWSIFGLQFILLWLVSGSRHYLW
Experimental: as §1

[2] = animal heart tissue, read-out: β Binding (IC50)
[3] = Rattus norvegicus, 0.5 h, 30 minutes after dosing, read-out: Vasodilation, % reduction in mean arterial blood pressure

T1 sequence (P18090 whole entry): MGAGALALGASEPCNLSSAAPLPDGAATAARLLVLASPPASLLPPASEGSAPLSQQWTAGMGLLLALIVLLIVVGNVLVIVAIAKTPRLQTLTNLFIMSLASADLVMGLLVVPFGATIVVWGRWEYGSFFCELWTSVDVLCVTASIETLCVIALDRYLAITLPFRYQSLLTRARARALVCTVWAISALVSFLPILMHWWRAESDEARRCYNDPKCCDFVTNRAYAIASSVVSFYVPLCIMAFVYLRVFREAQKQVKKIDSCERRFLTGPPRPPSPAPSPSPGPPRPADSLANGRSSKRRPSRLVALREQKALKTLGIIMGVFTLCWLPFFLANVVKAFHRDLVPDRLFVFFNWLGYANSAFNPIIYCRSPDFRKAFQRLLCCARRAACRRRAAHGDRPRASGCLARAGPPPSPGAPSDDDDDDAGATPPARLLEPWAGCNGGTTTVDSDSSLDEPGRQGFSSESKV

SMILES | IC50 (β-Receptor; [2]) [nM] | inhibition in vivo at 1 mg/kg [1, 3] [%] | Kb (rat dorsal aorta) [nM] | other results
CC(=O)Nc1ccc(OCC(O)CNC(C)C)cc1 (stereo not drawn) [Practolol, reference compound] | 1000 |  |  | 
COC(=O)C1=C(C)NC(C(C)C)=C(C(=O)OCC(C)(C)NCC(O)COc2ccccc2C#N)C1c1cccc([N+](=O)[O-])c1 (stereo not drawn) [Example 31] | 800 | 9 |  | 
COC(=O)C1=C(C)NC(C)=C(C(=O)OCCCNCC(O)COc2ccccc2C2CCCCC2)C1c1cccc([N+](=O)[O-])c1 (stereo not drawn) [Example 61] |  |  |  | Calcium (pA2) (rat dorsal aorta): 7.6
C=CCc1ccccc1OCC(O)CNCCCOC(=O)C1=C(C)NC(C)=C(C(=O)OC)C1c1cccc([N+](=O)[O-])c1 (stereo not drawn) [Example 62] |  |  |  | Calcium (pA2) (rat dorsal aorta): 7.4
CCC1=C(C(=O)OCCNCC(O)COc2ccccc2C#N)C(c2cccc([N+](=O)[O-])c2)C(C(=O)OC)=C(C)N1 (stereo not drawn) [Example 34] | 6000 | 17 | 12.6 | 
CCC1=C(C(=O)OCC(C)(C)NCC(O)COc2ccc(CCOC)cc2)C(c2cccc([N+](=O)[O-])c2)C(C(=O)OC)=C(C)N1 (stereo not drawn) [Example 39] | 400 | 54 | 1.58 | 
CCOC(=O)C1=C(C)NC(C)=C(C(=O)OCCCNCC(O)COc2ccccc2C#N)C1c1cccc([N+](=O)[O-])c1 (stereo not drawn) [Example 43] |  |  | 6.31 | 
COC(=O)C1=C(C)NC(C)=C(C(=O)OCCCNCC(O)COc2ccc(F)cc2C)C1c1cccc([N+](=O)[O-])c1 (stereo not drawn) [Example 42] |  | 39 | 3.98 | 
CCOC(=O)C1=C(C)NC(C)=C(C(=O)OCCCC(=O)Nc2ccc(OCC(O)CNC(C)C)cc2)C1c1cccc([N+](=O)[O-])c1 (stereo not drawn) [Example 56, Ethyl [3-[[[4-[2-Hydroxy-3-[(1-methylethyl)amino]-propoxy]phenyl]amino]carbonyl]propyl]1,4-Dihydro-2,6-dimethyl-4-(3-nitrophenyl)-3,5-pyridinedicarboxylateHydrate] | 620 |  | 10 | 
CCOC(=O)C1=C(C)NC(C)=C(C(=O)OCCc2ccc(OCC(O)CNC(C)C)cc2)C1c1cccc([N+](=O)[O-])c1 (stereo not drawn) [Example 54, Ethyl [2-[4-[3-[2-Hydroxy.(1-methylethyl)-amino]propoxy]phenyl]ethyl]1,4-Dihydro-2,6-dimethyl-4-(3-nitrophenyl)-3,5-pyridine dicarboxylate Hydrochloride Hydrate] | 100 | 57 | 12.6 | 
COC(=O)C1=C(C)NC(C)=C(C(=O)OCCCNCC(O)COc2cccc3c2C[C@H](O)[C@H](O)C3)C1c1cccc([N+](=O)[O-])c1 (relative stereo) [Example 64] |  |  |  | Calcium (pA2) (rat dorsal aorta): 7.3
COC(=O)C1=C(C)NC(C)=C(C(=O)OCCCNCC(O)COc2cccc(C)c2)C1c1cccc([N+](=O)[O-])c1 (stereo not drawn) [Example 41] |  | 28 | 6.31 | 
COC(=O)C1=C(C)NC(C)=C(C(=O)OCCCNCC(O)COc2cccc3c2CCCC3=O)C1c1cccc([N+](=O)[O-])c1 (stereo not drawn) [Example 63] |  |  |  | Calcium (pA2) (rat dorsal aorta): 8.8
COC(=O)C1=C(C)NC(C)=C(C(=O)OCCCNCC(O)COc2ccccc2C)C1c1cccc([N+](=O)[O-])c1 (stereo not drawn) [Example 44, Methyl [3-[[3-(2-Methylphenoxy)-2-hydroxypropyl]-amino]propyl]1,4-Dihydro-2,6-dimethyl-4-(3-nitrophenyl)-3,5-pyridinedicarboxylate Hydrochloride] | 10 | 28 | 10 to 15.8 | 
COC(=O)C1=C(C)NC(C)=C(C(=O)OCC(C)(C)NCC(O)COc2ccccc2C#N)C1c1cccc([N+](=O)[O-])c1 (stereo not drawn) [Example 29] | 20 | 52 | 6.31 | 
CCC1=C(C(=O)OCC(C)(C)NCC(O)COc2ccccc2Br)C(c2cccc([N+](=O)[O-])c2)C(C(=O)OC)=C(C)N1 (stereo not drawn) [Example 38] | 180 | 55 |  | 
COC(=O)C1=C(C)NC(c2cccs2)=C(C(=O)OCC(C)(C)NCC(O)COc2ccccc2C#N)C1c1cccc([N+](=O)[O-])c1 (stereo not drawn) [Example 33] | 70 | 12 |  | 
CCC1=C(C(=O)OCC(C)(C)NCC(O)COc2ccccc2C#N)C(c2cccc([N+](=O)[O-])c2)C(C(=O)OC)=C(C)N1 (stereo not drawn) [Example 30] | 200 | 50 | 3.98 | 
CCC1=C(C(=O)OCC(C)(C)NCC(O)COc2ccc(CC(N)=O)cc2)C(c2cccc([N+](=O)[O-])c2)C(C(=O)OC)=C(C)N1 (stereo not drawn) [Example 45, [2-[3-[4-(Aminocarbonyl)methyl]phenoxy]-2-hydroxypropyl]amino]-2,2-dimethylethyl]^3 Methyl^5 2-Ethyl-1,4-dihydro-6-methyl-4-(3-nitrophenyl)-3,5-pyridinedicarboxylate Hemihydrate] | 420 | 33 | 6.31 | 
COC(=O)C1=C(C)NC(C)=C(C(=O)OC)C1c1ccccc1[N+](=O)[O-] [Nifedipine, reference compound] |  |  |  | IC50 (β-Receptor): > 1000 nM; inhibition in vivo at 0.1 mg/kg ([1]; Rattus norvegicus, 0.5 h, 30 minutes after dosing, at 0.1 mg/kg, read-out: Vasodilation, % reduction in mean arterial blood pressure): 23%
CCC1=C(C(=O)OCCCNCC(O)COc2ccccc2C#N)C(c2cccc([N+](=O)[O-])c2)C(C(=O)OC)=C(C)N1 (stereo not drawn) [Example 35] | 200 | 28 |  | 
COC(=O)C1=C(C)NC(C)=C(C(=O)OCCNC(=S)NCCNCC(O)COc2ccccc2C)C1c1cccc([N+](=O)[O-])c1 (stereo not drawn) [Example 46] |  | 22 | 251 | 
COC(=O)C1=C(C)NC(c2ccccc2)=C(C(=O)OCC(C)(C)NCC(O)COc2ccccc2C#N)C1c1cccc([N+](=O)[O-])c1 (stereo not drawn) [Example 32] | 300 |  |  | inhibition in vivo at 10 mg/kg ([1]; Rattus norvegicus, 0.5 h, 30 minutes after dosing, at 10 mg/kg, read-out: Vasodilation, % reduction in mean arterial blood pressure): 22%
CCC1=C(C(=O)OCC(C)(C)NC(=O)Cc2ccc(OCC(O)CNC(C)C)cc2)C(c2cccc([N+](=O)[O-])c2)C(C(=O)OC)=C(C)N1 (stereo not drawn) [Example 57, [2-[4-[2-Hydroxy-3-[(1-methylethyl)amino]propoxy]-phenyl]methyl]carbonyI]amino]-2,2-dimethylethyl]^3 Methyl^5 2-Ethyl-1,4-dihydro-6-methyl-4-(3-nitrophenyl)-3,5-pyridinedicarboxylate Hemihydrate] | > 1000 | 11 | 50.1 | 
COC(=O)C1=C(C)NC(C)=C(C(=O)OCCCNCC(O)COc2ccccc2C(F)(F)F)C1c1cccc([N+](=O)[O-])c1 (stereo not drawn) [Example 60] |  |  |  | Calcium (pA2) (rat dorsal aorta): 7.2
CCC1=C(C(=O)OCC(C)(C)NCC(O)COc2ccccc2C)C(c2cccc([N+](=O)[O-])c2)C(C(=O)OC)=C(C)N1 (stereo not drawn) [Example 37] |  | 58 |  | 
COC(=O)C1=C(C)NC(C)=C(C(=O)OCCCNCC(O)COc2cccc3ccccc23)C1c1cccc([N+](=O)[O-])c1 (stereo not drawn) [Example 59] |  |  |  | Calcium (pA2) (rat dorsal aorta): 7.3
CCOC(=O)C1=C(C)NC(C)=C(C(=O)OCCc2ccc(OCC(O)CNC(C)(C)C)cc2)C1c1cccc([N+](=O)[O-])c1 (stereo not drawn) [Example 55, Ethyl [2-[4-[3-[(1,1-dimethylethyl)amino]-2-hydroxypropoxy]phenyl]ethyl]1,4-Dihydro-2,6-dimethyl-4-(3-nitrophenyl)-3,5-pyridinedicarboxylate Hydrochloride Hemihydrate] |  |  | 12.6 | Lethality in vasodilation test ([1]; 1.0 mg/kg): Lethal at 1.0 mg/kg
CCOC(=O)C1=C(C)NC(C)=C(C(=O)OCCCNCC(O)COc2ccccc2C)C1c1cccc([N+](=O)[O-])c1 (stereo not drawn) [Example 40] |  | 36 | 20 | 
